Experimental data from PubChem BioAssay AID1963850 (Molecular Pharmacology Branch, DTP, NCI, 2024).
pIC50: −log10 of the molar value.

System: 192522-019-R-J2-PDC complex tumor spheroid viability
Test: Anticancer human tumor 192522-019-R-J2-PDC patient-derived colon adenocarcinoma cell line growth inhibition [POLQ]
Conditions: for pIC50: curve of first compound; for viability, T/C: stronger effect = lower value
In short: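 Three-cell-type spheroids modelling solid tumor plus stroma served as the readout system; POL inhibitors were tested individually and in combination, concentration ranges set by clinical Cmax where known.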

[1] = second compound 0.0316 µM, first compound 0.00316 µM
[2] = second compound 0.0316 µM, first compound 0.01 µM
[3] = second compound 0.0316 µM, first compound 0.0316 µM
[4] = second compound 0.0316 µM, first compound 0.1 µM
[5] = second compound 0.0316 µM, first compound 0.316 µM
[6] = second compound 0.0316 µM, first compound 1 µM
[7] = second compound 0.1 µM, first compound 0.00316 µM
[8] = second compound 0.1 µM, first compound 0.01 µM
[9] = second compound 0.1 µM, first compound 0.0316 µM
[10] = second compound 0.1 µM, first compound 0.1 µM
[11] = second compound 0.1 µM, first compound 0.316 µM
[12] = second compound 0.1 µM, first compound 1 µM
[13] = second compound 0.316 µM, first compound 0.00316 µM
[14] = second compound 0.316 µM, first compound 0.01 µM
[15] = second compound 0.316 µM, first compound 0.0316 µM
[16] = second compound 0.316 µM, first compound 0.1 µM
[17] = second compound 0.316 µM, first compound 0.316 µM
[18] = second compound 0.316 µM, first compound 1 µM
[19] = second compound 1 µM, first compound 0.00316 µM
[20] = second compound 1 µM, first compound 0.01 µM
[21] = second compound 1 µM, first compound 0.0316 µM
[22] = second compound 1 µM, first compound 0.1 µM
[23] = second compound 1 µM, first compound 0.316 µM
[24] = second compound 1 µM, first compound 1 µM
[25] = second compound 3.16 µM, first compound 0.00316 µM
[26] = second compound 3.16 µM, first compound 0.01 µM
[27] = second compound 3.16 µM, first compound 0.0316 µM
[28] = second compound 3.16 µM, first compound 0.1 µM
[29] = second compound 3.16 µM, first compound 0.316 µM
[30] = second compound 3.16 µM, first compound 1 µM
[31] = second compound 10 µM, first compound 0.00316 µM
[32] = second compound 10 µM, first compound 0.01 µM
[33] = second compound 10 µM, first compound 0.0316 µM
[34] = second compound 10 µM, first compound 0.1 µM
[35] = second compound 10 µM, first compound 0.316 µM
[36] = second compound 10 µM, first compound 1 µM
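Also: spheroids exposed to drugs for seven days before reading.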
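For viability, T/C in this document: 100% = DMSO vehicle control viability in luminescence.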

C=CCn1c(=O)c2cnc(Nc3ccc(N4CCN(C)CC4)cc3)nc2n1-c1cccc(C(C)(C)O)n1 + COC1C(OC(N)=O)C(O)C(Oc2ccc3c(O)c(NC(=O)c4ccc(O)c(CC=C(C)C)c4)c(=O)oc3c2C)OC1(C)C
pIC50 (second compound 0.0316 µM): 6.18 | pIC50 (second compound 0.1 µM): 6.17 | pIC50 (second compound 0.316 µM): 6.18 | pIC50 (second compound 1 µM): 6.15 | pIC50 (second compound 3.16 µM): 6.13 | pIC50 (second compound 10 µM): 6.12 | viability, T/C [1]: 108% | viability, T/C [2]: 87.3% | viability, T/C [3]: 98.5% | viability, T/C [4]: 93.9% | viability, T/C [5]: 89.2% | viability, T/C [6]: 28.2% | viability, T/C [7]: 101% | viability, T/C [8]: 93.8% | viability, T/C [9]: 98% | viability, T/C [10]: 90.3% | viability, T/C [11]: 82.2% | viability, T/C [12]: 33.7% | viability, T/C [13]: 98.6% | viability, T/C [14]: 91.6% | viability, T/C [15]: 99.4% | viability, T/C [16]: 105% | viability, T/C [17]: 74.5% | viability, T/C [18]: 35.9% | viability, T/C [19]: 95.4% | viability, T/C [20]: 96.1% | viability, T/C [21]: 103% | viability, T/C [22]: 106% | viability, T/C [23]: 84.3% | viability, T/C [24]: 34.9% | viability, T/C [25]: 92.6% | viability, T/C [26]: 95.4% | viability, T/C [27]: 90.7% | viability, T/C [28]: 93.5% | viability, T/C [29]: 88% | viability, T/C [30]: 36.2% | viability, T/C [31]: 98.3% | viability, T/C [32]: 97.3% | viability, T/C [33]: 102% | viability, T/C [34]: 90% | viability, T/C [35]: 96.2% | viability, T/C [36]: 35.7%

CC[C@@]1(O)C(=O)OCc2c1cc1n(c2=O)Cc2cc3c(CN(C)C)c(O)ccc3nc2-1 + COC1C(OC(N)=O)C(O)C(Oc2ccc3c(O)c(NC(=O)c4ccc(O)c(CC=C(C)C)c4)c(=O)oc3c2C)OC1(C)C
pIC50 (second compound 0.0316 µM): < 7.00 | pIC50 (second compound 0.1 µM): < 7.00 | pIC50 (second compound 0.316 µM): < 7.00 | pIC50 (second compound 1 µM): < 7.00 | pIC50 (second compound 3.16 µM): < 7.00 | pIC50 (second compound 10 µM): < 7.00 | viability, T/C (second compound 0.0316 µM, first compound 0.000316 µM): 113% | viability, T/C (second compound 0.0316 µM, first compound 0.001 µM): 95.6% | viability, T/C [1]: 101% | viability, T/C [2]: 96.6% | viability, T/C [3]: 87.5% | viability, T/C [4]: 52.1% | viability, T/C (second compound 0.1 µM, first compound 0.000316 µM): 98.4% | viability, T/C (second compound 0.1 µM, first compound 0.001 µM): 103% | viability, T/C [7]: 102% | viability, T/C [8]: 96% | viability, T/C [9]: 90.4% | viability, T/C [10]: 56.1% | viability, T/C (second compound 0.316 µM, first compound 0.000316 µM): 105% | viability, T/C (second compound 0.316 µM, first compound 0.001 µM): 106% | viability, T/C [13]: 102% | viability, T/C [14]: 99.6% | viability, T/C [15]: 87.6% | viability, T/C [16]: 58.1% | viability, T/C (second compound 1 µM, first compound 0.000316 µM): 103% | viability, T/C (second compound 1 µM, first compound 0.001 µM): 99.6% | viability, T/C [19]: 105% | viability, T/C [20]: 102% | viability, T/C [21]: 84.8% | viability, T/C [22]: 53.9% | viability, T/C (second compound 3.16 µM, first compound 0.000316 µM): 102% | viability, T/C (second compound 3.16 µM, first compound 0.001 µM): 99.1% | viability, T/C [25]: 99.8% | viability, T/C [26]: 109% | viability, T/C [27]: 92.3% | viability, T/C [28]: 55.5% | viability, T/C (second compound 10 µM, first compound 0.000316 µM): 108% | viability, T/C (second compound 10 µM, first compound 0.001 µM): 103% | viability, T/C [31]: 98.5% | viability, T/C [32]: 103% | viability, T/C [33]: 84.8% | viability, T/C [34]: 57.6%

CCc1c2c(nc3ccc(O)cc13)-c1cc3c(c(=O)n1C2)COC(=O)[C@]3(O)CC + COC1C(OC(N)=O)C(O)C(Oc2ccc3c(O)c(NC(=O)c4ccc(O)c(CC=C(C)C)c4)c(=O)oc3c2C)OC1(C)C
pIC50 (second compound 0.0316 µM): 7.60 | pIC50 (second compound 0.1 µM): 7.29 | pIC50 (second compound 0.316 µM): 7.38 | pIC50 (second compound 1 µM): 7.47 | pIC50 (second compound 3.16 µM): 7.37 | pIC50 (second compound 10 µM): 7.36 | viability, T/C [1]: 96.3% | viability, T/C [2]: 52.5% | viability, T/C [3]: 52.3% | viability, T/C [4]: 47% | viability, T/C [5]: 35.1% | viability, T/C [6]: 23.8% | viability, T/C [7]: 84% | viability, T/C [8]: 59% | viability, T/C [9]: 55.8% | viability, T/C [10]: 49.7% | viability, T/C [11]: 31.7% | viability, T/C [12]: 27.5% | viability, T/C [13]: 83.7% | viability, T/C [14]: 56% | viability, T/C [15]: 53.7% | viability, T/C [16]: 47.5% | viability, T/C [17]: 31.4% | viability, T/C [18]: 25.8% | viability, T/C [19]: 82% | viability, T/C [20]: 52.3% | viability, T/C [21]: 57.9% | viability, T/C [22]: 43.3% | viability, T/C [23]: 30.1% | viability, T/C [24]: 27.9% | viability, T/C [25]: 86.7% | viability, T/C [26]: 57.3% | viability, T/C [27]: 57.9% | viability, T/C [28]: 40.3% | viability, T/C [29]: 35.9% | viability, T/C [30]: 23.8% | viability, T/C [31]: 83.3% | viability, T/C [32]: 54.6% | viability, T/C [33]: 59.4% | viability, T/C [34]: 41.9% | viability, T/C [35]: 35.5% | viability, T/C [36]: 27.8%
